Columns and labels:
[1] = target: Serine/threonine-protein kinase DCLK1 (Homo sapiens) (UniProt O15075); conditions: Compound concentration 1000.0 nM
[2] = target: Ephrin type-A receptor 6 (Homo sapiens) (UniProt Q9UF33); conditions: Compound concentration 1000.0 nM
[3] = target: Serine/threonine-protein kinase Nek5 (Homo sapiens) (UniProt Q6P3R8); conditions: Compound concentration 1000.0 nM
[4] = target: Serine/threonine-protein kinase/endoribonuclease IRE1 (Homo sapiens) (UniProt O75460); conditions: Compound concentration 1000.0 nM
Sequence of Serine/threonine-protein kinase/endoribonuclease IRE1 (Homo sapiens) (O75460 19-977 limits assumed): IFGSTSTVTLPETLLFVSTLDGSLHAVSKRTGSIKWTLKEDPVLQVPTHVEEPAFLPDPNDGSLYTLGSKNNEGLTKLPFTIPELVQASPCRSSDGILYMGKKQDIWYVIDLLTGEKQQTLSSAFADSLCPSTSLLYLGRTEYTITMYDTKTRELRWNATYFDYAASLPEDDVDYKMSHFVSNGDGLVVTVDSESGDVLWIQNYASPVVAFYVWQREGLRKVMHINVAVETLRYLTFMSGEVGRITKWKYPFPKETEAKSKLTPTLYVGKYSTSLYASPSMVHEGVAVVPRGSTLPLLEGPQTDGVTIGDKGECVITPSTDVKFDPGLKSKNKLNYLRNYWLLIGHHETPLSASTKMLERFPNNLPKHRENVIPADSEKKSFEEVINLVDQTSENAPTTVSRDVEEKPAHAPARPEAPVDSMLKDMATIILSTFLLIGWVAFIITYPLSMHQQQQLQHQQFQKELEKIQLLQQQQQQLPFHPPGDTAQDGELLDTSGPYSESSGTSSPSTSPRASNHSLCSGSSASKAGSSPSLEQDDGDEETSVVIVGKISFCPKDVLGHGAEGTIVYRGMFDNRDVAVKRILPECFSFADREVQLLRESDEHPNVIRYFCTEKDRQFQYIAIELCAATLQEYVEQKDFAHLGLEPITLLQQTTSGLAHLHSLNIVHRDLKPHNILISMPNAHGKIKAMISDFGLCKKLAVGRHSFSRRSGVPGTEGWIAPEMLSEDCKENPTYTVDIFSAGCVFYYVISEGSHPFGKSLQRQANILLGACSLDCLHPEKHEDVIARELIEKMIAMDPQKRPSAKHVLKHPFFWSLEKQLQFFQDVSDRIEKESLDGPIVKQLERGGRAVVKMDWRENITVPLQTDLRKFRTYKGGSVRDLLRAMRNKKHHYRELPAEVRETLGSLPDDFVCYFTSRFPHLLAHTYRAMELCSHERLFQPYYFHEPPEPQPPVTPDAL

[5] = target: BMP-2-inducible protein kinase (Homo sapiens) (UniProt Q9NSY1); conditions: Compound concentration 1000.0 nM
[6] = target: Serine/threonine-protein kinase Sgk3 (Homo sapiens) (UniProt Q96BR1); conditions: Compound concentration 1000.0 nM
[7] = target: Serine/threonine-protein kinase 32B (Homo sapiens) (UniProt Q9NY57); conditions: Compound concentration 1000.0 nM
[8] = target: Membrane-associated tyrosine- and threonine-specific cdc2-inhibitory kinase (Homo sapiens) (UniProt Q99640); conditions: Compound concentration 1000.0 nM
Sequence of Membrane-associated tyrosine- and threonine-specific cdc2-inhibitory kinase (Homo sapiens) (Q99640 whole entry): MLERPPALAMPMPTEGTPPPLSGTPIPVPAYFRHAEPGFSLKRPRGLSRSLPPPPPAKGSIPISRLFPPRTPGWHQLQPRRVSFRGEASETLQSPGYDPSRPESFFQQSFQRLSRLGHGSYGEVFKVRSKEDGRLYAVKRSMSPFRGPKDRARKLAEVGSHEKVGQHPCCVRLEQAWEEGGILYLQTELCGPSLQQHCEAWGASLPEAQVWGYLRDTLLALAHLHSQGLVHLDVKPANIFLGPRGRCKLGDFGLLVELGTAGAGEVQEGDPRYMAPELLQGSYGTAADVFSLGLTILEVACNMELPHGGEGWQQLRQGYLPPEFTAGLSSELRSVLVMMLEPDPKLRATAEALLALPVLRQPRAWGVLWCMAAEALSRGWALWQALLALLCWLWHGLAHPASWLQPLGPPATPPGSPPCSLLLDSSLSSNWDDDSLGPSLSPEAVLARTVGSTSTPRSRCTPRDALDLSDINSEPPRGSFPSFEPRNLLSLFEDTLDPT

[9] = target: GABA-A receptor; anion channel (Rattus norvegicus) (UniProt O09028+P15431+P18506+P18508+P19969+P20236+P23574+P23576+P28471+P28473+P30191+P62813+P63079+P63138+Q91ZM7+Q9ES14); conditions: Compound concentration 10.0 uM
[10] = target: 5-hydroxytryptamine receptor 1E (Homo sapiens) (UniProt P28566); conditions: Compound concentration 10.0 uM
[11] = target: Cyclin-dependent kinase 19 (Homo sapiens) (UniProt Q9BWU1); conditions: Compound concentration 1000.0 nM
[12] = target: Serine/threonine-protein kinase pim-2 (Homo sapiens) (UniProt Q9P1W9); conditions: Compound concentration 1000.0 nM
Sequence of Serine/threonine-protein kinase pim-2 (Homo sapiens) (Q9P1W9 whole entry, looked up): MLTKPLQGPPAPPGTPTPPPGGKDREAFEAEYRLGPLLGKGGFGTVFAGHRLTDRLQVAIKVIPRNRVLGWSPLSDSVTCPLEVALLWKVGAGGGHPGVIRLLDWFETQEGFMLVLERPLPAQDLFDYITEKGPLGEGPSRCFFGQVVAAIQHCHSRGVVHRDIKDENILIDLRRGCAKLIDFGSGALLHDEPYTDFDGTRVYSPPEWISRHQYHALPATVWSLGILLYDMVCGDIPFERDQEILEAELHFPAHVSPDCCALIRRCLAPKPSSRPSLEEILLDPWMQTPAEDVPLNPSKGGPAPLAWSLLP

[13] = target: Calcium/calmodulin-dependent protein kinase type II subunit gamma (Homo sapiens) (UniProt Q13555); conditions: Compound concentration 1000.0 nM
[14] = target: 5-hydroxytryptamine receptor 2C (Homo sapiens) (UniProt P28335); conditions: Compound concentration 10.0 uM
[15] = target: Phosphatidylinositol 4-phosphate 5-kinase type-1 alpha (Homo sapiens) (UniProt Q99755); conditions: Compound concentration 1000.0 nM
[16] = target: LIM domain kinase 1 (Homo sapiens) (UniProt P53667); conditions: Compound concentration 1000.0 nM
[17] = target: 3-phosphoinositide-dependent protein kinase 1 (Homo sapiens) (UniProt O15530); conditions: Compound concentration 1000.0 nM
[18] = target: Serine/threonine-protein kinase mTOR (Homo sapiens) (UniProt P42345); conditions: Compound concentration 1000.0 nM
[19] = target: Protein kinase C theta type (Homo sapiens) (UniProt Q04759); conditions: Compound concentration 1000.0 nM
[20] = target: Myotonin-protein kinase (Homo sapiens) (UniProt Q09013); conditions: Compound concentration 1000.0 nM
[21] = target: Serine/threonine-protein kinase SIK2 (Homo sapiens) (UniProt Q9H0K1); conditions: Compound concentration 1000.0 nM
[22] = target: Serine/threonine-protein kinase SIK1 (Homo sapiens) (UniProt P57059); conditions: Compound concentration 1000.0 nM
[23] = target: Tyrosine-protein kinase Fes/Fps (Homo sapiens) (UniProt P07332); conditions: Compound concentration 1000.0 nM
[24] = target: Cyclin-dependent kinase 11A (Homo sapiens) (UniProt Q9UQ88); conditions: Compound concentration 1000.0 nM
[25] = target: Mitogen-activated protein kinase kinase kinase kinase 2 (Homo sapiens) (UniProt Q12851); conditions: Compound concentration 1000.0 nM
[26] = target: Mitogen-activated protein kinase kinase kinase 15 (Homo sapiens) (UniProt Q6ZN16); conditions: Compound concentration 1000.0 nM
[27] = target: Calcium/calmodulin-dependent protein kinase type 1D (Homo sapiens) (UniProt Q8IU85); conditions: Compound concentration 1000.0 nM
[28] = target: Serine/threonine-protein kinase 36 (Homo sapiens) (UniProt Q9NRP7); conditions: Compound concentration 1000.0 nM
[29] = target: Tyrosine-protein kinase ABL1 (Homo sapiens) (UniProt P00519); conditions: Compound concentration 1000.0 nM
[30] = target: Serine/threonine-protein kinase STK11 (Homo sapiens) (UniProt Q15831); conditions: Compound concentration 1000.0 nM
[31] = target: Serine/threonine-protein kinase PLK3 (Homo sapiens) (UniProt Q9H4B4); conditions: Compound concentration 1000.0 nM
Sequence of Serine/threonine-protein kinase PLK3 (Homo sapiens) (Q9H4B4 whole entry, looked up): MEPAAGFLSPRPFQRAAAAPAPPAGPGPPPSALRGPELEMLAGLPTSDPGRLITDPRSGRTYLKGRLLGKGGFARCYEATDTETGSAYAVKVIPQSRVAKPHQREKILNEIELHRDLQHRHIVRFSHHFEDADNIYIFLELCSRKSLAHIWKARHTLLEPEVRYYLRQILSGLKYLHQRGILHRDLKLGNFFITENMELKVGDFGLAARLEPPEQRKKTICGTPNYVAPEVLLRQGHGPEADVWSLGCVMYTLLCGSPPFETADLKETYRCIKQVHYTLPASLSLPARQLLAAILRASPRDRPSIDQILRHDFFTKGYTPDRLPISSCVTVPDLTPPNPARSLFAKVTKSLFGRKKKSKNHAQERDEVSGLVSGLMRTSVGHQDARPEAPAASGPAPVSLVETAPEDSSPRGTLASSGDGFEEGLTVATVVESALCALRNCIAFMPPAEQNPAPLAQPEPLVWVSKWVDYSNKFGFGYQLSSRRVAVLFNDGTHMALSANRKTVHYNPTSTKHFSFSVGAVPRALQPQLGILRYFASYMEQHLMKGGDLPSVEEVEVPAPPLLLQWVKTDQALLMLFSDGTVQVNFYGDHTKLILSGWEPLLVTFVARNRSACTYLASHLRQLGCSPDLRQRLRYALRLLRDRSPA

[32] = target: Serine/threonine-protein kinase 4 (Homo sapiens) (UniProt Q13043); conditions: Compound concentration 1000.0 nM
[33] = target: Ribosomal protein S6 kinase alpha-4 (Homo sapiens) (UniProt O75676); conditions: Compound concentration 1000.0 nM
[34] = target: Interferon-induced, double-stranded RNA-activated protein kinase (Homo sapiens) (UniProt P19525); conditions: Compound concentration 1000.0 nM
[35] = target: Cyclin-dependent kinase 2 (Homo sapiens) (UniProt P24941); conditions: Compound concentration 1000.0 nM
[36] = test system: Phosphatidylinositol 4,5-bisphosphate 3-kinase catalytic subunit alpha isoform (Homo sapiens), P42336 [H1047L]; conditions: Compound concentration 1000.0 nM
[37] = target: Serine/threonine-protein kinase DCLK2 (Homo sapiens) (UniProt Q8N568); conditions: Compound concentration 1000.0 nM
[38] = target: Serine/threonine-protein kinase N1 (Homo sapiens) (UniProt Q16512); conditions: Compound concentration 1000.0 nM
[39] = target: Mitogen-activated protein kinase kinase kinase 6 (Homo sapiens) (UniProt O95382); conditions: Compound concentration 1000.0 nM
Sequence of Mitogen-activated protein kinase kinase kinase 6 (Homo sapiens) (O95382 whole entry, canonical isoform): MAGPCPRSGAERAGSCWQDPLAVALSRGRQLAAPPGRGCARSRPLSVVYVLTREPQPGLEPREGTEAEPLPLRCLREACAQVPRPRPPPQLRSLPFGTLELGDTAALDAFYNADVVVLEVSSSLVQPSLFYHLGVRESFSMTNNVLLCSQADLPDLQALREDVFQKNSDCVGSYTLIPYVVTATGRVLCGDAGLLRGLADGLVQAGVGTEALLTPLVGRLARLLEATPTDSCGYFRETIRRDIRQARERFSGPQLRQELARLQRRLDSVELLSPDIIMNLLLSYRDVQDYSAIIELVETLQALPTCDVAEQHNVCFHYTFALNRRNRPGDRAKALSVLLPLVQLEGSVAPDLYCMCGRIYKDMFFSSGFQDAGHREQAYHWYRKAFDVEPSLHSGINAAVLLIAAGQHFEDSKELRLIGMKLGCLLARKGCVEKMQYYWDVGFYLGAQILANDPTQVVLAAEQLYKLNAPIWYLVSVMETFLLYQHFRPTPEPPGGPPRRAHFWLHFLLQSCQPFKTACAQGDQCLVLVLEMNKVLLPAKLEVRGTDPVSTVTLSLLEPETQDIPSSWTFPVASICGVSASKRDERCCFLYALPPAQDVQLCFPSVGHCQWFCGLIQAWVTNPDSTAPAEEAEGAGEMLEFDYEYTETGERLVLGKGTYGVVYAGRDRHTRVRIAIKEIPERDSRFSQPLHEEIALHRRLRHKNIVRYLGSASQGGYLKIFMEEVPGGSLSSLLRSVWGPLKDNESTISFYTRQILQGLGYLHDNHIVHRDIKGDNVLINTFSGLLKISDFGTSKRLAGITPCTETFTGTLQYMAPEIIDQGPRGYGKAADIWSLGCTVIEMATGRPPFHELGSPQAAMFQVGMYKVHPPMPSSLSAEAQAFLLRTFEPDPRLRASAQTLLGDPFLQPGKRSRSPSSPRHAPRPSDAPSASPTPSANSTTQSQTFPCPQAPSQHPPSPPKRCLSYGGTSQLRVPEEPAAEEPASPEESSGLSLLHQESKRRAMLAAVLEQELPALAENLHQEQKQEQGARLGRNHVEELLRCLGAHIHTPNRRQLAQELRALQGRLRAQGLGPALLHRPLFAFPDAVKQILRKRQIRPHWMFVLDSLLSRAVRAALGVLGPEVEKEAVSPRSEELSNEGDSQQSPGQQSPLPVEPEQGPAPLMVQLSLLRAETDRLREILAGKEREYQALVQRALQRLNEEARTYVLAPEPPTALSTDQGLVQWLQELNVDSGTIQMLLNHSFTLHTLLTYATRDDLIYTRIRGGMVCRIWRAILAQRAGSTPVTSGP

[40] = target: Casein kinase I isoform epsilon (Homo sapiens) (UniProt P49674); conditions: Compound concentration 1000.0 nM
[41] = target: TRAF2 and NCK-interacting protein kinase (Homo sapiens) (UniProt Q9UKE5); conditions: Compound concentration 1000.0 nM
Sequence of TRAF2 and NCK-interacting protein kinase (Homo sapiens) (Q9UKE5 whole entry, looked up, canonical isoform): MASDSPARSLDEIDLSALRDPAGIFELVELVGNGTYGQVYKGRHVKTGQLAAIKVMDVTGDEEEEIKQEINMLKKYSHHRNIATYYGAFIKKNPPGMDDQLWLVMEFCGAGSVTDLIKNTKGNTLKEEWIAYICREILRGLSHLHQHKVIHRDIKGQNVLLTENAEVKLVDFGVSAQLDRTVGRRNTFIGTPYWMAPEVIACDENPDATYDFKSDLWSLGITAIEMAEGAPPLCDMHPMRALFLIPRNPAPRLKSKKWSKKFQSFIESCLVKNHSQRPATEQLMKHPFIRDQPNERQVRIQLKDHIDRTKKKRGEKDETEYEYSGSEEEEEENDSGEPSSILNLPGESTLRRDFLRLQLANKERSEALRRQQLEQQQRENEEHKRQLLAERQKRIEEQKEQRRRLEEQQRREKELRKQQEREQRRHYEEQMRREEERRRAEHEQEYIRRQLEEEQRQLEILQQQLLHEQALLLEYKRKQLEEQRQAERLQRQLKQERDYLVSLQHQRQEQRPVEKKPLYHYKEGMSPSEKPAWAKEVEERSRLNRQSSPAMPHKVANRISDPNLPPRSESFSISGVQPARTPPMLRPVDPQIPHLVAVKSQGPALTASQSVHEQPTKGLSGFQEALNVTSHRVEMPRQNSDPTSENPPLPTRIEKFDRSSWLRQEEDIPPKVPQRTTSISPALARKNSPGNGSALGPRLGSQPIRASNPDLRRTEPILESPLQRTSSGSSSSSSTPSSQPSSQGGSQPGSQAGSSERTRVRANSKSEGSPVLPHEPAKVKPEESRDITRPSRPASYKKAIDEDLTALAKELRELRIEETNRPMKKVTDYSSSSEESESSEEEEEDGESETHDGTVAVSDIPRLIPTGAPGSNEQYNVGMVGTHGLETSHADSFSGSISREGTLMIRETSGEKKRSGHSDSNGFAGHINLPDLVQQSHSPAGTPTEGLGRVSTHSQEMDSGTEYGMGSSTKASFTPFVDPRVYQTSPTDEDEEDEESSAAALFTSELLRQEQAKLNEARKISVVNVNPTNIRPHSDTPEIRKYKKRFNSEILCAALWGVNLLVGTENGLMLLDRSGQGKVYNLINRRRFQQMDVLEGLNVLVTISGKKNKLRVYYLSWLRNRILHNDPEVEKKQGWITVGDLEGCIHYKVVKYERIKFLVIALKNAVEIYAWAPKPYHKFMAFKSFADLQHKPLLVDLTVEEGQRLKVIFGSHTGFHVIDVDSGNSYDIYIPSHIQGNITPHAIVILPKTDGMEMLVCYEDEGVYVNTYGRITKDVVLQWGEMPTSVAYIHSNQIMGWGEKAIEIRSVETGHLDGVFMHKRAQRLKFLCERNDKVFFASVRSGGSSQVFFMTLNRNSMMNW

[42] = target: Casein kinase I isoform gamma-1 (Homo sapiens) (UniProt Q9HCP0); conditions: Compound concentration 1000.0 nM
[43] = target: Uncharacterized serine/threonine-protein kinase SBK3 (Homo sapiens) (UniProt P0C264); conditions: Compound concentration 1000.0 nM

SMILES: CN([C@@H]1CCc2c(CC(=O)O)c3cc(S(C)(=O)=O)ccc3n2C1)S(=O)(=O)c1ccc(F)cc1
- residual activity [1]: 79%
- residual activity [2]: 91%
- residual activity [3]: 100%
- residual activity [4]: 100%
- residual activity [5]: 98%
- residual activity [6]: 85%
- residual activity [7]: 100%
- residual activity [8]: 100%
- inhibition [9]: 10.8%
- inhibition [10]: 5.5%
- residual activity [11]: 100%
- residual activity [12]: 100%
- residual activity [13]: 100%
- inhibition [14]: 0.933%
- residual activity [15]: 100%
- residual activity [16]: 100%
- residual activity [17]: 100%
- residual activity [18]: 79%
- residual activity [19]: 78%
- residual activity [20]: 100%
- residual activity [21]: 93%
- residual activity [22]: 87%
- residual activity [23]: 92%
- residual activity [24]: 100%
- residual activity [25]: 90%
- residual activity [26]: 93%
- residual activity [27]: 99%
- residual activity [28]: 98%
- residual activity [29]: 95%
- residual activity [30]: 69%
- residual activity [31]: 70%
- residual activity [32]: 97%
- residual activity [33]: 100%
- residual activity [34]: 100%
- residual activity [35]: 100%
- residual activity [36]: 96%
- residual activity [37]: 100%
- residual activity [38]: 90%
- residual activity [39]: 89%
- residual activity [40]: 96%
- residual activity [41]: 100%
- residual activity [42]: 91%
- residual activity [43]: 49%

SMILES: CN([C@@H]1CCc2c(CC(=O)O)c3ccccc3n2C1)S(=O)(=O)c1ccc(F)cc1 [MK-7246]
- residual activity [1]: 82%
- residual activity [2]: 91%
- residual activity [3]: 100%
- residual activity [4]: 94%
- residual activity [5]: 100%
- residual activity [6]: 100%
- residual activity [7]: 100%
- residual activity [8]: 100%
- inhibition [9]: 22.4%
- inhibition [10]: 35.8%
- residual activity [11]: 94%
- residual activity [12]: 100%
- residual activity [13]: 100%
- inhibition [14]: -1.51%
- residual activity [15]: 100%
- residual activity [16]: 100%
- residual activity [17]: 100%
- residual activity [18]: 100%
- residual activity [19]: 83%
- residual activity [20]: 100%
- residual activity [21]: 99%
- residual activity [22]: 71%
- residual activity [23]: 79%
- residual activity [24]: 100%
- residual activity [25]: 87%
- residual activity [26]: 100%
- residual activity [27]: 100%
- residual activity [28]: 100%
- residual activity [29]: 100%
- residual activity [30]: 56%
- residual activity [31]: 85%
- residual activity [32]: 98%
- residual activity [33]: 100%
- residual activity [34]: 100%
- residual activity [35]: 100%
- residual activity [36]: 100%
- residual activity [37]: 100%
- residual activity [38]: 83%
- residual activity [39]: 80%
- residual activity [40]: 90%
- residual activity [41]: 79%
- residual activity [42]: 100%
- residual activity [43]: 100%

Reference: ChEMBL document CHEMBL4507290 (2021)
